In US20250230193A1, “CYCLIC COMPOUND HAVING SELECTIVE KRAS INHIBITORY EFFECT ON HRAS AND NRAS” (CHUGAI SEIYAKU KABUSHIKI KAISHA, priority 2022, published 2025):

Key:
[1] = biological target: GDP-bound HRAS wild-type protein (Homo sapiens, UniProt P01112); assay: Binding to HRAS by surface plasmon resonance (SPR), Single Cycle Kinetics; details: SPR, GDP-bound HRAS wild-type vs GDP-bound KRAS wild-type
[2] = biological target: GDP-bound NRAS wild-type protein (Homo sapiens, UniProt P01111); assay: Binding to NRAS by surface plasmon resonance (SPR), Single Cycle Kinetics; details: SPR, GDP-bound NRAS wild-type vs GDP-bound KRAS wild-type
Chain of GDP-bound NRAS wild-type protein (P01111 whole entry): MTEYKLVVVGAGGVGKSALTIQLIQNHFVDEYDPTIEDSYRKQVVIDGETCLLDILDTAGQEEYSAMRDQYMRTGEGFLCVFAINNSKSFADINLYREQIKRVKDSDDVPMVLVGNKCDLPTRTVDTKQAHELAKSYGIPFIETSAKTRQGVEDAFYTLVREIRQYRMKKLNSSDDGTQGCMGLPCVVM

Chain of GDP-bound HRAS wild-type protein (P01112 whole entry): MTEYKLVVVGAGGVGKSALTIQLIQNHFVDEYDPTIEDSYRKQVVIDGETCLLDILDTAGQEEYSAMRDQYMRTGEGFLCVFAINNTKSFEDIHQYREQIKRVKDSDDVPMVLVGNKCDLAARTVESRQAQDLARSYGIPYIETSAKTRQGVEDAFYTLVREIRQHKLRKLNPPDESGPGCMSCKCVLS

Row | Structure (SMILES) | HRAS/KRAS (ratio of KD value with respect to HRAS to KD value with respect to KRAS) [1] | NRAS/KRAS (ratio of KD value with respect to NRAS to KD value with respect to KRAS) [2]
1 | CC[C@H](C)[C@@H]1NC(=O)[C@H](COC)N(C)C(=O)C[C@@H](C(=O)N(C)C)N(C)C(=O)[C@H](C2CCCC2)N(C)C(=O)C2(CC(C)(C)C2)NC(=O)[C@@H]2C[C@H](C)CN2C(=O)[C@H](CCc2ccc(C(F)(F)F)c(OC)c2)NC(=O)CN(C)C(=O)[C@H](Cc2ccc(C)cc2)N2CC/C=C\C[C@@H](C2=O)N(C)C(=O)[C@@H]2C[C@H](C)CN2C1=O [PP2386] | B (a compound having 3 or more and less than 10 is denoted as B) | A (a compound having 10 or more and less than 20 is denoted as A)
2 | CC[C@H](C)[C@@H]1NC(=O)[C@H](COC)N(C)C(=O)C[C@@H](C(=O)N(C)C)N(C)C(=O)[C@H](C2CCCC2)N(C)C(=O)C2(CC(C)(C)C2)NC(=O)[C@@H]2C[C@@H](C)CN2C(=O)[C@H](CCc2ccc(C(F)(F)F)c(OC)c2)NC(=O)CN(C)C(=O)[C@H](Cc2ccc(C)cc2)N2CC/C=C\C[C@@H](C2=O)N(C)C(=O)CN(C)C1=O [PP2387] | A (a compound having 10 or more and less than 20 is denoted as A) | A (a compound having 10 or more and less than 20 is denoted as A)
3 | CCC[C@H]1C(=O)N[C@@H]([C@@H](C)CC)C(=O)N2C[C@@H](OC)C[C@H]2C(=O)N(C)[C@H]2C/C=C\CCN(C2=O)[C@@H](Cc2ccc(C)cc2)C(=O)N(C)CC(=O)N[C@@H](CCc2ccc(C(F)(F)F)c(OC)c2)C(=O)N2C[C@@H](C)C[C@H]2C(=O)NC2(CC(C)(C)C2)C(=O)N(C)[C@@H](C2CCCC2)C(=O)N(C)[C@H](C(=O)N(C)C)CC(=O)N1C [PP2388] | B (a compound having 3 or more and less than 10 is denoted as B) | A (a compound having 10 or more and less than 20 is denoted as A)
4 | CCO[C@@H]1C[C@H]2C(=O)NC3(CC(C)(C)C3)C(=O)N(C)[C@@H](C3CCCC3)C(=O)N(C)[C@H](C(=O)N(C)C)CC(=O)N(C)[C@@H](COC)C(=O)N[C@@H]([C@@H](C)CC)C(=O)N(C)CC(=O)N(C)[C@H]3C/C=C\CCN(C3=O)[C@@H](Cc3ccc(C)cc3)C(=O)N(C)CC(=O)N[C@@H](CCc3ccc(C(F)(F)F)c(Cl)c3)C(=O)N2C1 [PP2389] | B (a compound having 3 or more and less than 10 is denoted as B) | A (a compound having 10 or more and less than 20 is denoted as A)
5 | CC[C@H](C)[C@@H]1NC(=O)[C@H](COC)N(C)C(=O)C[C@@H](C(=O)N(C)C)N(C)C(=O)[C@H](C2CCCC2)N(C)C(=O)C2(CC(C)(C)C2)NC(=O)[C@@H]2C[C@H](C)CN2C(=O)[C@H](CCc2ccc(C(F)(F)F)c(OC)c2)NC(=O)CN(C)C(=O)[C@H](Cc2ccc(C)cc2)N2CC/C=C\C[C@@H](C2=O)N(C)C(=O)[C@@H]2C[C@H](OC)CN2C1=O [PP2390] | B (a compound having 3 or more and less than 10 is denoted as B) | A (a compound having 10 or more and less than 20 is denoted as A)
6 | CCO[C@@H]1C[C@H]2C(=O)NC3(CC(C)(C)C3)C(=O)N(C)[C@@H](C3CCCC3)C(=O)N(C)[C@H](C(=O)N(C)C)CC(=O)N(C)[C@@H](COC)C(=O)N[C@@H]([C@@H](C)CC)C(=O)N(C)CC(=O)N(C)[C@H]3C/C=C\CCN(C3=O)[C@@H](Cc3ccc(C)cc3)C(=O)N(C)CC(=O)N[C@@H](CCc3cc(F)c(C(F)(F)F)c(F)c3)C(=O)N2C1 [PP2391] | A (a compound having 10 or more and less than 20 is denoted as A) | A (a compound having 10 or more and less than 20 is denoted as A)
7 | CCO[C@@H]1C[C@H]2C(=O)NC3(CC(C)(C)C3)C(=O)N(C)[C@@H](C3CCCC3)C(=O)N(C)[C@H](C(=O)N(C)CC)CC(=O)N(C)[C@@H](COC)C(=O)N[C@@H]([C@@H](C)CC)C(=O)N(C)CC(=O)N(C)[C@H]3C/C=C\CCN(C3=O)[C@@H](Cc3ccc(C)cc3)C(=O)N(C)CC(=O)N[C@@H](CCc3ccc(C(F)(F)F)c(OC)c3)C(=O)N2C1 [PP2392] | A (a compound having 10 or more and less than 20 is denoted as A) | A (a compound having 10 or more and less than 20 is denoted as A)
8 | CCOC[C@H]1C(=O)N[C@@H]([C@@H](C)CC)C(=O)N(C)CC(=O)N(C)[C@H]2C/C=C\CCN(C2=O)[C@@H](Cc2ccc(C)cc2)C(=O)N(C)CC(=O)N[C@@H](CCc2ccc(C(F)(F)F)c(OC)c2)C(=O)N2C[C@H](C)C[C@H]2C(=O)NC2(CC(C)(C)C2)C(=O)N(C)[C@@H](C2CCCC2)C(=O)N(C)[C@H](C(=O)N(C)C)CC(=O)N1C [PP2393] | A (a compound having 10 or more and less than 20 is denoted as A) | A (a compound having 10 or more and less than 20 is denoted as A)
9 | CCOC[C@H]1C(=O)N[C@@H]([C@@H](C)CC)C(=O)N(C)CC(=O)N(C)[C@H]2C/C=C\CCN(C2=O)[C@@H](Cc2ccc(C)cc2)C(=O)N(C)CC(=O)N[C@@H](CCc2ccc(C(F)(F)F)c(Cl)c2)C(=O)N2C[C@@H](C)C[C@H]2C(=O)NC2(CC(C)(C)C2)C(=O)N(C)[C@@H](C2CCCC2)C(=O)N(C)[C@H](C(=O)N(C)C)CC(=O)N1C [PP2394] | B (a compound having 3 or more and less than 10 is denoted as B) | A (a compound having 10 or more and less than 20 is denoted as A)
10 | CCOC[C@H]1C(=O)N[C@@H]([C@@H](C)CC)C(=O)N(C)CC(=O)N(C)[C@H]2C/C=C\CCN(C2=O)[C@@H](Cc2ccc(C)cc2)C(=O)N(C)CC(=O)N[C@@H](CCc2ccc(C(F)(F)F)c(Cl)c2)C(=O)N2C[C@H](OCC)C[C@H]2C(=O)NC2(CC(C)(C)C2)C(=O)N(C)[C@@H](C2CCCC2)C(=O)N(C)[C@H](C(=O)N(C)C)CC(=O)N1C [PP2395] | B (a compound having 3 or more and less than 10 is denoted as B) | A (a compound having 10 or more and less than 20 is denoted as A)
11 | CCO[C@@H]1C[C@H]2C(=O)NC3(CC(C)(C)C3)C(=O)N(C)[C@@H](C3CCCC3)C(=O)N(C)[C@H](C(=O)N(C)CC)CC(=O)N(C)[C@@H](COC)C(=O)N[C@@H]([C@@H](C)CC)C(=O)N(C)CC(=O)N(C)[C@H]3C/C=C\CCN(C3=O)[C@@H](Cc3ccc(C)cc3)C(=O)N(C)CC(=O)N[C@@H](CCc3cc(F)c(C(F)(F)F)c(F)c3)C(=O)N2C1 [PP2396] | A (a compound having 10 or more and less than 20 is denoted as A) | A (a compound having 10 or more and less than 20 is denoted as A)
12 | CCOC[C@H]1C(=O)N[C@@H]([C@@H](C)CC)C(=O)N(C)CC(=O)N(C)[C@H]2C/C=C\CCN(C2=O)[C@@H](Cc2ccc(C)cc2)C(=O)N(C)CC(=O)N[C@@H](CCc2cc(F)c(C(F)(F)F)c(F)c2)C(=O)N2C[C@H](OCC)C[C@H]2C(=O)NC2(CC(C)(C)C2)C(=O)N(C)[C@@H](C2CCCC2)C(=O)N(C)[C@H](C(=O)N(C)C)CC(=O)N1C [PP2397] | A (a compound having 10 or more and less than 20 is denoted as A) | A (a compound having 10 or more and less than 20 is denoted as A)
13 | CCO[C@@H]1C[C@H]2C(=O)NC3(CC(C)(C)C3)C(=O)N(C)[C@@H](C3CCCC3)C(=O)N(C)[C@H](C(=O)N(CC)CC)CC(=O)N(C)[C@@H](COC)C(=O)N[C@@H]([C@@H](C)CC)C(=O)N(C)CC(=O)N(C)[C@H]3C/C=C\CCN(C3=O)[C@@H](Cc3ccc(C)cc3)C(=O)N(C)CC(=O)N[C@@H](CCc3ccc(C(F)(F)F)c(OC)c3)C(=O)N2C1 [PP2398] | A (a compound having 10 or more and less than 20 is denoted as A) | A (a compound having 10 or more and less than 20 is denoted as A)
14 | CC[C@H](C)[C@@H]1NC(=O)[C@H](COC)N(C)C(=O)C[C@@H](C(=O)N(CC)CC)N(C)C(=O)[C@H](C2CCCC2)N(C)C(=O)C2(CC(C)(C)C2)NC(=O)[C@@H]2C[C@H](C)CN2C(=O)[C@H](CCc2ccc(C(F)(F)F)c(Cl)c2)NC(=O)CN(C)C(=O)[C@H](Cc2ccc(C)cc2)N2CC/C=C\C[C@@H](C2=O)N(C)C(=O)CN(C)C1=O [PP2399] | A (a compound having 10 or more and less than 20 is denoted as A) | AA (a compound having 20 or more is denoted as AA)
15 | CCO[C@@H]1C[C@H]2C(=O)NC3(CC(C)(C)C3)C(=O)N(C)[C@@H](C3CCCC3)C(=O)N(C)[C@H](C(=O)N(CC)CC)CC(=O)N(C)[C@@H](COC)C(=O)N[C@@H]([C@@H](C)CC)C(=O)N(C)CC(=O)N(C)[C@H]3C/C=C\CCN(C3=O)[C@@H](Cc3ccc(C)cc3)C(=O)N(C)CC(=O)N[C@@H](CCc3ccc(C(F)(F)F)c(Cl)c3)C(=O)N2C1 [PP2400] | A (a compound having 10 or more and less than 20 is denoted as A) | A (a compound having 10 or more and less than 20 is denoted as A)
